This is an account of results in patent US11161856B2 (H. Lundbeck A/S, priority 2017, dated 2021).

The target of experiment [1] is T1, MGLL (Mus musculus, UniProt O35678).
T1 construct: Brain; from tissue; host or cells: mouse brain proteome
T1 sequence (O35678 1-303): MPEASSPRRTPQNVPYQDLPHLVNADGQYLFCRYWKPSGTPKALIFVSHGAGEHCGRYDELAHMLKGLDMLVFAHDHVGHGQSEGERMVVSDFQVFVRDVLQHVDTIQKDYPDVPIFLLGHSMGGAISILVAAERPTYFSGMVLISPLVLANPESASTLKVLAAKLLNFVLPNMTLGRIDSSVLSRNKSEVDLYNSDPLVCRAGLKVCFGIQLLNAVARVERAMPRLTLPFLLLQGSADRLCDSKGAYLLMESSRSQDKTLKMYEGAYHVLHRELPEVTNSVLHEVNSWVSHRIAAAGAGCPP
The experiment is described as follows: In vitro competitive activity-based protein profiling, mouse brain proteome (MGLL). As to conditions: for % Inh MGLL Brain (Mouse, μM): concentration not given (μM). In kind it is biochemical.

For experiment [2], the target named is T2, MAGL (Mus musculus, UniProt O35678).
T2 construct: from tissue; host or cells: brain of wild-type C57Bl/6J mice dosed by oral gavage
T2 sequence (O35678 1-303): T1 sequence (O35678 1-303)
Kind of experiment: Mouse brain proteomes from inhibitor treated mice (oral gavage, brain proteome ABPP 4 h after administration). It is filed as in vivo. As to conditions: mouse brain proteome 4 h after administration. The method, then:
Preparation of Mouse Brain Proteomes from Inhibitor Treated Mice.
Inhibitors were administered to wild-type C57B1/6J by oral gavage in a vehicle of polyethylene glycol. Each animal was sacrificed 4 h following administration and brain proteomes were prepared and analyzed according to previously established methods (See Niphakis, M. J., et al. (2011) ACS Chem. Neurosci. and Long, J. Z., et al. Nat. Chem. Biol. 5:37-44).

Experiment [3] concerns the target T3, ABHD6 (Mus musculus, UniProt Q8R2Y0).
T3 construct: Brain; from tissue; host or cells: mouse brain proteome
T3 sequence (Q8R2Y0 1-336): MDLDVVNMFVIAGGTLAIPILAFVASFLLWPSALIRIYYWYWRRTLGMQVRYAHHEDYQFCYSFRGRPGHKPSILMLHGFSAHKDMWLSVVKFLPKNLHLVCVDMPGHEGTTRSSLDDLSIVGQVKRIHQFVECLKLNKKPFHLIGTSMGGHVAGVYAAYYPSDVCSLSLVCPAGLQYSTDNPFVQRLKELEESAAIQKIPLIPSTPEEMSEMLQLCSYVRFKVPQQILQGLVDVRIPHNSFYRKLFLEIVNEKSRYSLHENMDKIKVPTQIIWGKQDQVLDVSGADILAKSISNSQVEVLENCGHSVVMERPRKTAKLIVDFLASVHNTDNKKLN
The experiment is described as follows: In vitro competitive activity-based protein profiling, mouse brain proteome (ABHD6). As to conditions: for % Inh ABHD6 Brain (Mouse, μM): mouse brain proteome, concentration not given (μM). In kind it is biochemical. The method, then:
[The source words this procedure for another target and reports this target under the same test.] In Vitro Competitive Activity-Based Protein Profiling.
Proteomes (human prefrontal cortex or cell membrane fractions) (50 μL, 1.0 mg/mL total protein concentration) were preincubated with varying concentrations of inhibitors at 37° C. After 30 min, FP-Rh or HT-01 (1.0 μL, 50 μM in DMSO) was added and the mixture was incubated for another 30 min at room temperature. Reactions were quenched with SDS loading buffer (15 μL-4×) and run on SDS-PAGE.

The target of experiment [4] is T4, MAGL (Homo sapiens, UniProt Q99685).
T4 construct: Proteomes (human prefrontal cortex or cell membrane fractions); from tissue
T4 sequence (Q99685 1-303): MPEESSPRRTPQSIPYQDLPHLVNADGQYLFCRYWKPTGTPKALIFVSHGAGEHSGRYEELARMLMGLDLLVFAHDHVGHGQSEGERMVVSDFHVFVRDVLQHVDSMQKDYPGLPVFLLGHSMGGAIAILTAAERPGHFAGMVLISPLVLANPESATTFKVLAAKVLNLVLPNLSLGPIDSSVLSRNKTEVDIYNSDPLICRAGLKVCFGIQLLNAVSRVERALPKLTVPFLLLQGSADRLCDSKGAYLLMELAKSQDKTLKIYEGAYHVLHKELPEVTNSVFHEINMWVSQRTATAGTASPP
The experiment is described as follows: In vitro competitive activity-based protein profiling (FP-Rh or HT-01 probe, gel-based). In kind it is biochemical. Also noted: IC50 MGLL PC3 (Human, μM) / IC50 MGLL PFC (Human, μM): scale not given here. As to conditions: for IC50 MGLL PC3 (Human, μM) / % Inh MGLL PC3 (Human, μM): PC3 cell proteome; for % Inh MGLL PC3 (Human, μM) / % Inh MGLL PFC (Human, μM): concentration not given (μM). The method in brief:
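Human prefrontal cortex or cell membrane proteomes (1.0 mg/mL total protein) were preincubated with varying inhibitor concentrations for 30 min at 37° C. FP-Rh or HT-01 probe (50 μM DMSO stock) was then added for 30 min at room temperature, and samples were quenched in SDS loading buffer and resolved by SDS-PAGE.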

The mark [5] stands for this setting: prefrontal cortex (PFC) proteome.

`CS(=O)(=O)N1CCC2(CC1)CN(c1cc(C(F)(F)F)ccc1CN1CCN(C(=O)OC(C(F)(F)F)C(F)(F)F)CC1)C2` [Example 207, 1,1,1,3,3,3-Hexafluoropropan-2-yl 4-(2-(7-(methylsulfonyl)-2,7-diazaspiro[3,5]nonan-2-yl)-4-(trifluoromethyl)benzyl) piperazine-1-carboxylate]: in experiment [1], the IC50 was less than 100 nM and the “% Inh MGLL Brain (Mouse, μM)” value is reported as “### (### is ≥75%)”. Further, in experiment [2], the “% Inh 5 mg/kg MGLL (Mouse)” value is given as “### (### is ≥75%)”. Further, the “% Inh ABHD6 Brain (Mouse, μM)” value in experiment [3] is “## (## is between 25 and 75%)”. Besides, the IC50 in experiment [3] (mouse proteome) is greater than 1000 nM.
In the case of `CC1(OCc2cc(CN3CCC(C(=O)O)CC3)cc(C(F)(F)F)c2)CCN(C(=O)OC(C(F)(F)F)C(F)(F)F)CC1` [Example 25, 1-(3-(((1-(((1,1,1,3,3,3-Hexafluoropropan-2-yl)oxy)carbonyl)-4-methylpiperidin-4-yl)oxy)methyl)-5-(trifluoromethyl)benzyl)piperidine-4-carboxylic acid], the “% Inh MGLL Brain (Mouse, μM)” value in experiment [1] is “### (### is ≥75%)”. The “% Inh ABHD6 Brain (Mouse, μM)” value in experiment [3] is “### (### is ≥75%)”. In addition, in experiment [4], the “IC50 MGLL PC3 (Human, μM)” value is on record as “* * *” and the “% Inh MGLL PC3 (Human, μM)” value is recorded as “### (### is ≥75%)”.
Turning to `O=C(OC(C(F)(F)F)C(F)(F)F)N1CC2(CCN(Cc3ccc(C(F)(F)F)cc3N3CCCC3)CC2)C1` [Example 150, 1,1,1,3,3,3-Hexafluoropropan-2-yl 7-(2-(pyrrolidin-1-yl)-4-(trifluoromethyl)benzyl)-2,7-diazaspiro[3.5]nonane-2-carboxylate], the “% Inh MGLL Brain (Mouse, μM)” value in experiment [1] is given as “# (# is ≤25%)”. In addition, the “% Inh ABHD6 Brain (Mouse, μM)” value in experiment [3] is recorded as “### (### is ≥75%)”. For the same compound, in experiment [4] (setting [5]), the “% Inh MGLL PFC (Human, μM)” value is “## (## is between 25 and 75%)”.
For `CN(Cc1ccc(C(F)(F)F)cc1N1CCN(CC(=O)O)CC1)C1(C)CCN(C(=O)OC(C(F)(F)F)C(F)(F)F)CC1` [Example 26, 2-(4-(2-(((1-(((1,1,1,3,3,3-Hexafluoropropan-2-yl)oxy)carbonyl)-4-methylpiperidin-4-yl)(methyl)amino)methyl)-5-(trifluoromethyl)phenyl)piperazin-1-yl)acetic acid], the “% Inh MGLL Brain (Mouse, μM)” value in experiment [1] is “### (### is ≥75%)”. Besides, the “% Inh ABHD6 Brain (Mouse, μM)” value in experiment [3] is “### (### is ≥75%)”. Also, in experiment [4], the “IC50 MGLL PC3 (Human, μM)” value is “* * *” and the “% Inh MGLL PC3 (Human, μM)” value was “### (### is ≥75%)”. In experiment [4] (setting [5]), the “IC50 MGLL PFC (Human, μM)” value is recorded as “* * *”.
Turning to `O=C(O)C1COCCN1c1cc(CN2CC3(CCN(C(=O)OC(C(F)(F)F)C(F)(F)F)CC3)C2)cc(C(F)(F)F)c1` (centres unmarked) [Example 103], in experiment [1], the “% Inh MGLL Brain (Mouse, μM)” value is “### (### is ≥75%)”. For the same compound, the “% Inh ABHD6 Brain (Mouse, μM)” value in experiment [3] was “## (## is between 25 and 75%)”. Besides, the “% Inh MGLL PFC (Human, μM)” value in experiment [4] (setting [5]) was “### (### is ≥75%)”.
As for `O=C(O)CN1CC2(CCN(c3cc(CN4CCCC45CCN(C(=O)OC(C(F)(F)F)C(F)(F)F)CC5)cc(C(F)(F)F)c3)CC2)C1` [Example 158, 2-(7-(3-((8-(((1,1,1,3,3,3-Hexafluoropropan-2-yl)oxy)carbonyl)-1,8-diazaspiro[4.5]decan-1-yl)methyl)-5-(trifluoromethyl)phenyl)-2,7-diazaspiro[3,5]nonan-2-yl)acetic acid], in experiment [1], the “% Inh MGLL Brain (Mouse, μM)” value is recorded as “### (### is ≥75%)”. The “% Inh ABHD6 Brain (Mouse, μM)” value in experiment [3] is recorded as “# (# is ≤25%)”. Also, in experiment [4] (setting [5]), the “% Inh MGLL PFC (Human, μM)” value was “### (### is ≥75%)”.
For `O=C(O)CN1CC2CC1CN2c1cc(CN2CCCC23CCN(C(=O)OC(C(F)(F)F)C(F)(F)F)CC3)cc(C(F)(F)F)c1` (centres unmarked) [Example 128, 2-(5-{3-[(8-{[(1,1,1,3,3,3-Hexafluoropropan-2-yl)oxy]carbonyl}-1,8-diazaspiro[4.5]decan-1-yl)methyl]-5-(trifluoromethyl)phenyl}-2,5-diazabicyclo[2.2.1]heptan-2-yl)acetic acid], the “% Inh MGLL Brain (Mouse, μM)” value in experiment [1] was “### (### is ≥75%)”. In addition, the “% Inh ABHD6 Brain (Mouse, μM)” value in experiment [3] is on record as “# (# is ≤25%)”. Further, the “% Inh MGLL PFC (Human, μM)” value in experiment [4] (setting [5]) was “### (### is ≥75%)”.
